Experimental data: US7371555B2, “Polypeptides having α-H-α-amino acid amide racemase activity and nucleic acids encoding the same” (DSM IP Assets B.V., priority 2002, dated 2008)

Tests used:
[1] = Stability of substrate in chemical blanks (HEPES-NaOH buffer without cells); assay type: physicochemical; conditions: HEPES-NaOH buffer pH 7.7, 139 hours, concentration constant (0.7 w/w %)
Method: 1 ml Of disintegrated cells of each of the three strains was incubated in a HEPES-NaOH buffer (20 mM) pH 7.7, to which pyridoxal-5-phosphate (0.01 mM) was added as a cofactor and D-leucine amide (60.8 mM) as a substrate in a total volume of 10 ml (0.79 w/w % D-leucine amide). After 0 and 139 hours 1 ml samples were taken (of which the exact weight was measured) and the reaction in these samples was stopped by adding 1 ml methanol (of which the exact weight was measured too; to be able to calculate dilution factors). Stopped reaction mixtures were centrifuged to remove particulates. The supernatants were frozen at −86° C. until HPLC analysis according to the method given in Example 1. […]
From the table it can be seen that α-H-α-amino acid amide racemase activity is present in the disintegrated cells of Agrobacterium rhizogenes Na, Agrobacterium rhizogenes Bi and Arthrobacter nicotianae as D-leucine amide is converted into L-leucine; this conversion is not detected in the chemical blanks. In the chemical blanks no D-leucine or L-leucine could be detected even after 139 hours; the D-leucine amide concentration was constant (0.7 w/w %) meaning that D-leucine amide is very stable under the applied reaction conditions.

[2] = system: E. coli clones with plasmid encoded A. nicotianae NCIMB 41126 α-H-α-amino acid amide racemase activity; assay: Confirmation of potential positive clones of the A. nicotianae NCIMB 41126 gene library; assay type: cell-based, Arthrobacter nicotianae NCIMB 41126; conditions: 70 mM substrate, 10 μM pyridoxal-5-phosphate, 20 h at 30° C.
Method: Of all 32 potential positive clones identified in the screening, material from the masterplates was used to inoculate 3 ml of liquid screening medium containing 50 mg/l kanamycin. After growth for 2 days at 30° C., cells were collected by centrifuging 2 ml of these cell cultures. Then the cell pellets were washed four times in 25 mM Tris-HCl buffer, pH 7.5. Subsequently, the cell pellets were resuspended in 100 μl substrate solution containing 70 mM of D-phenylalanine amide, or D-leucine amide, or D-valine amide in 50 mM Tris-HCl, pH 7.5 and 1 mM MnCl2. After incubation for 20 h at 30° C., the reactions were stopped by the addition of 100 μl of 0.15 M HCl, after which the reaction mixtures were analyzed by the HPLC method described in Example 1.
Confirmation of both potential positive clones was done according to the protocol given in Example 3, with the exception that all 3 substrate solutions used contained 10 μM of pyridoxal-5-phosphate.

[3] = system: α-H-α-amino acid amide racemase from Ochrobactrum anthropi IA; assay: Substrate specificity, CFE from E. coli TOP10/pKEC_AZAR_3 (Example 7); assay type: biochemical; conditions: relative to the activity towards D-leucine amide; 75 mM substrate, 20 mM EDTA, pH 8.0, 37° C.
Method: Two pre-cultures of E. coli TOP10/pKEC_AZAR—3 (see Example 4) were prepared by inoculation of 2 erlenmeyer flasks with 100 ml of 2*TY medium (10 g/l Yeast extract, 16 g/l Tryptone, 5 g/l NaCl) containing 50 mg/l of kanamycin with 10 μl of a glycerol stock per flask. After overnight cultivation at 28° C. and 200 rpm, the pre-cultures were pooled, and subsequently used to inoculate 2 erlenmeyer flasks each containing 1 l of the same medium. Also these flasks were cultivated at 28° C. and 200 rpm for 16-18 h. Cells were harvested by centrifugation (15 min. at 6,200×g, 4° C.), washed with 20 mM HEPES-NaOH, pH 7.5, pooled, weighed, and resuspended in a solution containing 20 mM HEPES-NaOH, pH 7.5, 20 μM pyridoxal-5-phosphate, and 1.3 mM of dithiothreitol in a 1:3 ratio of wet weight cells to solution. Then, cells were disintegrated by 10 min. sonification with a Soniprep 150 of MSE operated at maximum amplitude using time intervals of 10 sec. (i.e., 10 sec. sonification, 10 sec. cooling) and cooling in ice/acetone. Particles were removed by centrifugation, after which sucrose was added to the cell free extract to a final concentration of 0.25 M. The resulting cell free extract (CFE) was stored in aliquots at −20° C. E. coli TOP10/pBAD/Myc-HisC (Invitrogen) cells were treated in exactly the same way and served as negative control.
The substrate specificity of the α-H-α-amino acid racemase from O. anthropi IA was determined by measuring the racemase activity of the above-mentioned CFE towards a number of enantiomerically pure amino acid amides. Each reaction mixture of 10 ml (including the CFE) contained 50 mM HEPES-NaOH, pH 8.0, 20 μM pyridoxal-5-phosphate, 0.4 mg/ml BSA, 1 mM dithiothreitol, 20 mM EDTA and 75 mM of one of the amino acid amides tested. Reactions were started by the addition of 1 ml of the thawed CFE of E. coli TOP10/pKEC_AZAR—3 or E. coli TOP10/pBAD/Myc-HisC (blank) and were incubated at 37° C. At regular time intervals samples of 1 ml were taken and transferred to vials containing 1 ml of 1M H3PO4 to stop the reaction. After sufficient dilution of the samples in 0.4 M borate buffer pH 9.4, the mixtures obtained were analyzed using HPLC to determine the exact concentrations of the two amino acid and two amino acid amide enantiomers according to the following method.
The initial activity for the different substrates tested was calculated from the linear parts of the progress curves, in which the conversion was plotted against the reaction time. Use of the linear part of the progress curves secured that only samples taken at time points at which the substrate concentration was still sufficiently high, were used for the calculations. The conversion was calculated by dividing the amount of amino acid and amino acid amide formed via the racemase reaction (so with the opposite stereochemistry compared to the substrate molecule) by the total amount of two amino acid enantiomers and the two amino acid amide enantiomers.

Question: With `CC(C)C[C@@H](N)C(N)=O` [D-leucine amide] as the molecule, how does the “stability under the applied reaction conditions” value [1] read?
Answer: very stable

Question: What about the “conversion of D-amide into L-acid” value [2] of the same molecule?
Answer: significantly converted

Question: What about the Rel. initial activity [3] of the same molecule?
Answer: 100%
